Laboratory results reported in patent US20060205636A1, “Oxytocin as cardiomyogenesis inducer and uses thereof” (priority 2002, published 2006).
“Also recorded” adds a separate entry of the source.

Key:
P19 cells [1] = conditions: cited from earlier work
[2] = tested on: sarcomeric MHC and DHPR-alphal; assay: Immunocytofluorescence of cardiac muscle markers in P19 cells; assay type: cell-based, mouse; conditions: for MHC and DHPR-alphal immunoreactive foci: aggregates treated day 0-4, stained day 14
Procedure: (§1) For immunocytofluorescence studies, cells were grown onto glass coverslips coated with 0.1% gelatin. They were then fixed by 20-min incubation in PBS containing 4% paraformaldehyde, rinsed in PBS and stored at 4° C. in this buffer until used. All subsequent steps of permeabilization, washing and incubation with antibodies were performed at room temperature. Fixed cells were permeabilized for 10 min in PBS containing 0.005% saponin, blocked for 60 min in PBS-BSA-saponin (PBS containing 1% bovine serum albumin and 0.005% saponin), incubated for 45 min with the primary antibody diluted 1/50 and for 45 min with a fluorescein-conjugated swine anti-goat IgG antibody (Biosource International, Camarillo, Calif.) diluted 1/1000. PBS-BSA-saponin was used for washing between incubations and antibodies were diluted in the same buffer but containing 1.5% normal swine serum (Jackson Immuno Research Laboratories Inc., West Grove, Pa.). Coverslips were mounted in PBS containing 50% glycerol, and immediately examined under the microscope. The primary antibodies were all from Santa Cruz Biotechnology, Inc. (Santa Cruz, Calif.) and produced in goat: antibody C-20 against OT receptor (OTR), antibody K-16 against sarcomeric myosin heavy chain (MHC), and antibody N-19 against dihydropyridine receptor-alphal (DHPR-alphal).

OTR = OTR expression in P19 cells (immunocytochemistry, Western blot, RT-PCR); assay type: cell-based, mouse; conditions: for OTR expression (protein and mRNA) after treatment: DMSO 0.5%, OT 10^−7 M or OTA 10^−7 M alone; for early OTR induction (RT-PCR): second day of differentiation protocol, preliminary results
Procedure: as §1
Total cellular RNA was extracted with TRIzol® Reagent (Invitrogen Life Technologies, Burlington, Ontario, Canada), and poly(A)^+mRNA was affinity purified from 200 μg of total RNA onto Oligotex® mRNA columns (Qiagen, Mississauga, Ontario, Canada), as per the manufacturers' instructions. First-strand cDNA was synthesized in a final volume of 40 μl containing first-strand buffer, 3 μg of cellular RNA, 4 μl of hexanucleotide primers (Amersham-Pharmacia, Baie d'Urfé, Quebec, Canada), and avian myeloblastosis virus reverse transcriptase (12 units/μg RNA; Invitrogen). First-strand cDNA (5 μl) was then used for PCR amplification with OTR, ANP or GAPDH exon-specific oligonucleotide primers in a Robocycler Gradient 40 thermocycler (Stratagene, La Jolla, Calif.). Sequences of mouse OTR and ANP genes have been described (26, 34). Conditions for RT-PCR analysis of mouse OTR were adapted from Wagner et al. (6, 7). For all PCR studies the number of cycles used was within the linear range of amplification. The OTR sense and antisense primers were respectively the 22-bp 5′-[…]-3′ (SEQ ID NO:9) and the 23-bp 5′-[…]-3′ (SEQ ID NO:10). Amplification was performed over 32 cycles, each involving 1 min at 94° C., 1.5 min at 62° C. and 1.5 min at 72° C., and was terminated by a 5-min final extension at 72° C. The ANP antisense and sense primers were respectively the 24-bp 5′-[…]-3′ (SEQ ID NO:11) and the 20-bp 5′-[…]-3′ (SEQ ID NO:12). Amplification was performed over 25-30 cycles, each involving 1 min at 94° C., 1 min at 65° C. and 3 min at 72° C., and was terminated by a 5-min final extension at 72° C. The amplification of GAPDH mRNA, a constitutively and ubiquitously expressed gene, served as an internal standard for RT-PCR analysis. The 23-bp antisense primer 5′-[…]-3′ (SEQ ID NO:13) and the 23-bp sense primer 5′-[…]-3′ (SEQ ID NO:14) were used. Amplification was performed over 23 cycles, each involving 1 min at 94° C., 1.5 min at 59° C. and 2 min at 72° C.
Cells were collected by scraping, homogenized in sucrose buffer (20 mM Hepes/Tris, pH 7.4, containing 250 mM sucrose and 20 μg/ml of the protease inhibitor phenylmethylsulfonyl fluoride), then centrifuged at 3000 g for 10 min at 4° C. to remove debris. The supernatants were centrifuged at 100 000 g for 45 min at 4° C., and the pellets were resuspended in sucrose buffer for analysis of protein content by a modified Bradford assay (30). […]

P19 cells [3] = assay: OT production by induced P19 cells (RIA); assay type: cell-based, mouse; conditions: day 14, 4 h in serum-free medium
Procedure: P19 cells induced with DMSO or OT were cultured until day 14 in absence of inducer. Cells were washed carefully with PBS and incubated for 4 h in serum-free α-MEM supplemented with protease inhibiors (aprotinin, 30 μg/mL and soybean trypsin inhibitor (SBTI), 100 μg/mL). Cells and media were collected, extracted on Sep-Pak C18-cartridges (Waters Canada, Mississauga, Ontario), lyophilized, resuspended in a minimal volume of α-MEM and assayed by RIA as described (8). RIA was also done on undiluted serum combination used for P19 cell culture (1 part of fetal bovine serum and 3 parts of donor bovine serum).

ANP mRNA = assay: RT-PCR analysis of ANP gene transcript in P19 cultures; assay type: cell-based, mouse; conditions: for ANP mRNA level compared to undifferentiated cells: day 14 of differentiation
Procedure: Total cellular RNA was extracted with TRIzol® Reagent (Invitrogen Life Technologies, Burlington, Ontario, Canada), and poly(A)^+mRNA was affinity purified from 200 μg of total RNA onto Oligotex® mRNA columns (Qiagen, Mississauga, Ontario, Canada), as per the manufacturers' instructions. […] Invitrogen). First-strand cDNA (5 μl) was then used for PCR amplification with OTR, ANP or GAPDH exon-specific oligonucleotide primers in a Robocycler Gradient 40 thermocycler (Stratagene, La Jolla, Calif.). Sequences of mouse OTR and ANP genes have been described (26, 34). Conditions for RT-PCR analysis of mouse OTR were adapted from Wagner et al. (6, 7). For all PCR studies the number of cycles used was within the linear range of amplification. The OTR sense and antisense primers were respectively the 22-bp [NT] ID NO:9) and the 23-bp [NT] ID NO:10). […] The ANP antisense and sense primers were respectively the 24-bp [NT] ID NO:11) and the 20-bp [NT] ID NO:12). […] The amplification of GAPDH mRNA, a constitutively and ubiquitously expressed gene, served as an internal standard for RT-PCR analysis. The 23-bp antisense primer [NT] ID NO:13) and the 23-bp sense primer [NT] ID NO:14) were used.

P19 cells [4] = assay: Mean diameter of P19 cell aggregates; assay type: cell-based, mouse; conditions: data not shown
Procedure: (§2) Briefly, 0.25×10^6 cells were allowed to aggregate for 4 days in non-adhesive bacteriological grade petri dishes (6-cm diameter) containing 5 ml complete medium, in the presence of 0.5% (v/v) DMSO (Sigma Chemical Co., St. Louis, Mo.). At day 2 of aggregation, the inducing culture medium was replenished. At day 4, aggregates were transferred to tissue culture grade vessels (10-cm diameter dishes or 24/48-well plates), and cultured in complete medium in the absence of differentiation-inducing agent. Aggregation was also done in the absence of DMSO, and in the presence of 10^−7 M OT and/or 10^−7 OTA ([d(CH2)5^1,Tyr(Me)^2,Thr^4,Orn^8,Tyr-NH2^9]-vasotocin), both from Peninsula Laboratories Inc. (San Carlos, Calif.). The cell populations were analyzed at days 10-14 of the entire differentiation protocol, at a time cardiac cells normally beat synchronously.

P19 cells [5] = assay: Cardiac differentiation of P19 cell aggregates, scored by beating cell colonies; assay type: cell-based, mouse; conditions: for day by which beating cell colonies were present in all 24 independently growing cultures: aggregates treated 4 days with 10^−7 M OT or 0.5% DMSO, 24-well plate
From the text: P19 cells were propagated and differentiated according to the procedures of Rudnicki and McBurney (28), with minor modifications. Undifferentiated cells were propagated in complete medium containing α-modified Eagle's minimal essential medium (α-MEM; GIBCO-BRL Burlington, Ontario, Canada) supplemented with 2.5% heat-inactivated fetal bovine serum, 7.5% heat-inactivated donor bovine serum (Cansera International, Rexdale, Ontario, Canada), and the antibiotics (GIBCO-BRL) penicillin G (50 U/ml) and streptomycin (50 μg/ml). The cultures were maintained at 37° C. in a humidified atmosphere of 5% CO2 and passaged every 2 days. The general protocol used for differentiation of P19 cells is depicted in FIG. 1.
as §2
P19 cells were subjected to the cardiac differentiation protocol depicted in Example 1, except that different concentrations of OT were used during the four days of aggregation. At day 4, aggregates were transferred to 24-well plates and scored for the appearance of beating cell colonies. In addition, cells were collected at day 14 for analysis of OTR or OT expression by RT-PCR. Cell aggregates were also treated with RA and/or T3.

P19 cells [6] = assay: Rhodamine123 retention in P19 cultures; assay type: cell-based, mouse; conditions: day 10 of differentiation, p<0.001
Procedure: For morphological examination, cells were grown directly onto the plastic surface of tissue culture vessels. For staining with rhodamine^123 (Sigma), day-4 aggregates were distributed in 24-well culture plates and grown until day 8. Then, dye was added to the culture medium at a final concentration of 1 μg/ml for 45 min, and afterwards, the cells were washed extensively with phosphate-buffered saline (PBS) and cultured for 48 h in the absence of the dye. Dye retained by cells in each well was measured by a fluorescence microplate reader (SPECTRA Max Gemini®, Molecular Devices, Sunnyvale, Calif.) at 505 nm for excitation and 534 nm for emission.

[7] = molecular target: oxytocin receptor (OTR) of P19 mouse embryonal carcinoma cells (mouse) (UniProt P97926); assay: cell-based or functional assay; conditions: scale: cultures with beating colonies
Chain of oxytocin receptor (OTR) of P19 mouse embryonal carcinoma cells (mouse) (P97926 whole entry): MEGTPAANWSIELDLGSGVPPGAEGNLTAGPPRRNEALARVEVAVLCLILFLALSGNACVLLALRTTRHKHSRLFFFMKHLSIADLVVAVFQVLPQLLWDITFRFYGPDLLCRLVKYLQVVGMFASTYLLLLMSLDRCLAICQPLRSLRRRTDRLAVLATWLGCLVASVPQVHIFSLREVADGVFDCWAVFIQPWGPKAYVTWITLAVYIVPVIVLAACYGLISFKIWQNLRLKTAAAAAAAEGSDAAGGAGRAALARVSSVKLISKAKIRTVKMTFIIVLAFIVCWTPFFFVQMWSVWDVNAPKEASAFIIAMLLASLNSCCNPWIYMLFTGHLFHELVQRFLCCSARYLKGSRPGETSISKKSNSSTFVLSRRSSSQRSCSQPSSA

## N[C@@H](Cc1cc(I)c(Oc2ccc(O)c(I)c2)c(I)c1)C(=O)O [T3, triiodothyronine]
P19 cells [1]; Rodriguez et al., 1994
  optimal effective concentration for cardiomyogenic differentiation of P19 cells: 30 nM

## C[S+](C)[O-] [DMSO]
[2]
  MHC and DHPR-alphal immunoreactive foci: numerous, intense, immunoreactive foci
OTR; day 14
  OTR expression (protein and mRNA) after treatment: increased OTR expression
P19 cells [3]
  OT release by induced P19 cells: release OT in their culture medium
ANP mRNA
  ANP mRNA level compared to undifferentiated cells: at similar level
P19 cells [4]
  reduction of mean aggregate diameter versus untreated counterparts: 1.5 fold
P19 cells [1]; DMSO-induced
  efficiency of cardiac differentiation: ≤ 15%
P19 cells [5]
  day by which beating cell colonies were present in all 24 independently growing cultures: 12 days

## oxytocin [OT]
[2]
  MHC and DHPR-alphal immunoreactive foci: numerous, intense, immunoreactive foci
[2]; not presented
  6-day versus 4-day OT treatment of aggregates (myocyte immunological markers): no difference with the 4-day treatment
OTR; day 14
  OTR expression (protein and mRNA) after treatment: increased OTR expression
OTR; differentiated populations at day 14
  OTR mRNA expression versus OT concentration: concentration-dependent
OTR
  early OTR induction (RT-PCR): most potent OTR inducer
P19 cells [3]
  OT release by induced P19 cells: release OT in their culture medium
ANP mRNA
  ANP mRNA level compared to undifferentiated cells: significantly upregulated
P19 cells [4]
  reduction of mean aggregate diameter versus untreated counterparts: 1.5 fold
P19 cells [5]; 4 days of aggregation with different OT concentrations
  OT concentration range over which differentiation into beating cardiomyocytes is concentration-dependent: 10^−6 to 10^−9 M
P19 cells [5]; P19 cell aggregates treated day 0-4 with 10^−7 M OT
  formation of rhythmically-beating cells: induced the formation of rhythmically-beating cells
P19 cells [5]
  day by which beating cell colonies were present in all 24 independently growing cultures: 8 days
P19 cells [5]; final OT concentration of 10^−12 M
  cardiac differentiation at the OT concentration supplied by serum in culture medium: not sufficient to induce cardiac differentiation
P19 cells [6]
  rhodamine123 retention, OT compared with DMSO: significantly higher after OT than DMSO treatment

## oxytocin (from UniProt P01178 20-28) (peptide)
[7]
  production of beating cell colonies (P19 cardiomyocyte differentiation, 24-well plate): 24

## [d(CH2)5^1,Tyr(Me)^2,Thr^4,Orn^8,Tyr-NH2^9]-vasotocin [OTA]
OTR; OT 10^−7 M + OTA 10^−7 M, day 14
  effect of OTA on OT-induced OTR upregulation: inhibited OT-induced OTR upregulation
OTR; day 14
  OTR expression (protein and mRNA) after treatment: did not upregulate OTR expression by itself
OTR
  early OTR induction (RT-PCR): no effect on OTR expression
ANP mRNA; DMSO + OTA day 0-4, day 14
  effect of OTA on DMSO-induced ANP expression: not statistically significant
ANP mRNA; OT + OTA day 0-4, day 14, p<0.05
  effect of OTA on OT-induced ANP expression: prevented OT-induced upregulation of ANP expression
P19 cells [5]; 30 nM T3 + 10^−7 M OTA
  effect of OTA on T3-induced cardiac differentiation: abolished cardiac differentiation induced by T3; also recorded: completely inhibits P19 cell differentiation into cardiomyocytes
P19 cells [5]; 10^−7 M OTA + 0.5% DMSO
  effect of OTA on DMSO-induced cardiac differentiation (beating cell colonies): abolished the cardiogenic action of DMSO; also recorded: completely inhibits P19 cell differentiation into cardiomyocytes
P19 cells [5]; 10^−7 M OTA + 10^−7 M OT
  beating cells with OTA in combination with OT: no beating cells were seen
P19 cells [5]; 10^−7 M OTA alone
  beating cells with OTA in place of OT: no beating cells were seen
P19 cells [5]; RA 10^−7 M + OTA 10^−7 M
  effect of OTA on RA-induced cardiac differentiation: completely inhibits RA-induced cardiac differentiation; also recorded: completely inhibits P19 cell differentiation into cardiomyocytes
